Measurements taken from publication PMC9636434, “Discovery of small molecule agonists of the Relaxin Family Peptide Receptor 2” (Communications Biology, 2022).
Values joined by “and” are separate entries in the source; they are usually repeats but may differ in a detail not shown here. Identical values can stand only once.

What was measured:
human RXFP1 = target: T1, human RXFP1 (Homo sapiens, UniProt Q9HBX9); assay: HTRF cAMP counter-screen in HEK293T cells expressing human RXFP1; type: cell-based; settings: human RXFP1, positive control, experiments (1)-(3)
T1 construct: FLAG (N); expressed in transfected cells
T1 sequence (Q9HBX9 1-757): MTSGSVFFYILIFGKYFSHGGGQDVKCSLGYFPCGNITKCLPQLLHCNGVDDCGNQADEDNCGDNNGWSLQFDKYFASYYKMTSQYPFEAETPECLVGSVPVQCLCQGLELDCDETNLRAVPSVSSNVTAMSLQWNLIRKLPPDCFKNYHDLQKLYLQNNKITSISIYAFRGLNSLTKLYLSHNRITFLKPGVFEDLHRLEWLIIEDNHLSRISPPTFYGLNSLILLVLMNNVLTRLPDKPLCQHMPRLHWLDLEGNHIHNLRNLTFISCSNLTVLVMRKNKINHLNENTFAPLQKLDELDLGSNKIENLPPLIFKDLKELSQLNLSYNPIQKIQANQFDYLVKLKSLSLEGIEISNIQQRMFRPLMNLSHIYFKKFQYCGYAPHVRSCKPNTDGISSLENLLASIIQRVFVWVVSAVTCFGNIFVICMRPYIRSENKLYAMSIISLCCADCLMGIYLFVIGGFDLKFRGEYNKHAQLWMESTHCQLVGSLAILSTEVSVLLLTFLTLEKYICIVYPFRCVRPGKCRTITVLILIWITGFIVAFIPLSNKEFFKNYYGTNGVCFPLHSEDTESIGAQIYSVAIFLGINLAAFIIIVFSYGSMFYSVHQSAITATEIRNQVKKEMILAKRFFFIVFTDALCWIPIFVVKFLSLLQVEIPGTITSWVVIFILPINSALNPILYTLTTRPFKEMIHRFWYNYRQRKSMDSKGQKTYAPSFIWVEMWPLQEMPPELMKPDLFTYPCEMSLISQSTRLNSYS
Experimental: (§1) The HTRF Gs dynamic cAMP assay kit (CisBio, Bedford, MA) was used to measure intracellular cAMP accumulation in HEK293T cells (ATCC, Manassas, VA)[56]. […] The cell stock was verified mycoplasma free and authenticated by ATCC. Transient transfection was accomplished by treating cells in a 6-well plate with a mixture of 2 μg plasmid and 6 μL Lipofectamine 2000 (Invitrogen, Waltham, MA) per manufacturer’s protocol and incubating overnight. For cAMP measurement in 96-well format, HEK293T cells stably transfected with human RXFP2 (HEK-RXFP2), human RXFP1 (HEK-RXFP1), mouse Rxfp1 (HEK-Rxfp1) or transiently transfected with human RXFP1-RXFP2 chimeric receptors were seeded between 7500 and 30,000 cells per well, depending on cell line responsiveness, in serum-free DMEM medium and incubated overnight at 37 °C, 5% CO2. After 18 h, cells were treated with a titration of compound, 2 μM forskolin, or DMSO vehicle. Control wells were also treated with a titration of INSL3 (Phoenix Pharmaceuticals, Burlingame, CA) or human recombinant relaxin 2 (Peprotech, Cranbury, NJ). For the RXFP2 antagonist experiment, cells were co-treated with 0.28 μM compound or 30 nM INSL3 and a titration of the INSL3 B dimer antagonist[38],[39]. For the INSL3 allosteric modulation experiment, cells were co-treated with 0.025, 0.0025, or 0.00025 μM of compound and a titration of INSL3. Cells were incubated for 1 h at 37 °C, 5% CO2, and then kit cAMP-d2 and anti-cAMP antibody were added per manufacturer protocol. Plates were incubated for 1 h at room temperature and the signal was read on a CLARIOstar plate reader (BMG Labtech, Ortenberg, Germany) at 665 and 620 nm emission wavelengths. […]
(§2) receptors. HTRF cAMP counter-screen of RXFP2 agonists in HEK293T cells expressing a human RXFP1 and b mouse RXFP1. Relaxin 2 was used as positive control for RXFP1 receptor activation. Results are expressed as mean ± SEM of 3

mouse RXFP1 = target: T2, mouse RXFP1 (Mus musculus, UniProt Q6R6I7); assay: HTRF cAMP counter-screen in HEK293T cells expressing mouse RXFP1; type: cell-based; settings: mouse RXFP1, positive control, experiments (1)-(3)
T2 construct: FLAG (N); expressed in transfected cells
T2 sequence (Q6R6I7 1-758): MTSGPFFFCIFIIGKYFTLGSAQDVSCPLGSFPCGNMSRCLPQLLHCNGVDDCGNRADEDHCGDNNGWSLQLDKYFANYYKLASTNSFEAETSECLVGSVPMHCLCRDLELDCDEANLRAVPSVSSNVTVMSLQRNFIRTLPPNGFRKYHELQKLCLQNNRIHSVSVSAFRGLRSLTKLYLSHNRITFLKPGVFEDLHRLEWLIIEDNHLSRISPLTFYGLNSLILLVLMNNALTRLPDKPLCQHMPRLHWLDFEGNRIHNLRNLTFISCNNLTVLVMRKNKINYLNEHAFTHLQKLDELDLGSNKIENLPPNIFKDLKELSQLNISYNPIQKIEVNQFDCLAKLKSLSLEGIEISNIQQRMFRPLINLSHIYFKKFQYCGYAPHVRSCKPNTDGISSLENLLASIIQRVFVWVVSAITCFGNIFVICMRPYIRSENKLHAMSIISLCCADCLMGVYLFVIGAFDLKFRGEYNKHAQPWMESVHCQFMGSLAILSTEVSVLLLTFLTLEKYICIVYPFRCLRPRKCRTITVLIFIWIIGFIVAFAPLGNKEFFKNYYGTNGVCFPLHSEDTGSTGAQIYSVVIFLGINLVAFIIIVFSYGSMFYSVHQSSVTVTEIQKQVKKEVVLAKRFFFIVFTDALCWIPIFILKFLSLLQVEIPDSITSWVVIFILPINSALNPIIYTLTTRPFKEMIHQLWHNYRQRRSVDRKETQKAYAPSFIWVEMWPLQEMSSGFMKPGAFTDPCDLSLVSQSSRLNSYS
Experimental: as §1, §2

[1] = target: chimera RXFP2-1 (extracellular domain of RXFP2, transmembrane domain of RXFP1) (human); parameters: EC50 of the cAMP response (HTRF cAMP assay, transiently transfected HEK293T cells): unit not given beside the values

| % Eff (cAMP) (human RXFP1; Log [M] -7) | % Eff (cAMP) (human RXFP1; Log [M] -8) | % Eff (cAMP) (human RXFP1; Log [M] -9) | % Eff (cAMP) (human RXFP1; Log [M] -11) | % Eff (cAMP) (mouse RXFP1; Log [M] -7) | % Eff (cAMP) (mouse RXFP1; Log [M] -8) | % Eff (cAMP) (mouse RXFP1; Log [M] -9) | % Eff (cAMP) (mouse RXFP1; Log [M] -10) | % Eff (cAMP) (mouse RXFP1; Log [M] -11) | EC50 of the cAMP response (HTRF cAMP assay, transiently transfected HEK293T cells) [1] | Emax of the cAMP response (HTRF cAMP assay, transiently transfected HEK293T cells; normalized to 2 µM FSK as 100% efficacy) [1] | Substance |
| --- | --- | --- | --- | --- | --- | --- | --- | --- | --- | --- | --- |
| 514.186% and 485.16% and 431.341% | 600.088% and 494.195% and 523.956% | 370.096% and 250.531% and 374.784% | -0.2294% and 1.737% and 3.775% | 488.966% and 468.543% and 521.705% | 318.502% and 312.701% and 407.269% | 105.124% and 102.88% and 64.6466% | 7.396% and 8.915% and 6.254% | 0.7539% and 1.08% and 0.2993% |  |  | Relaxin |
|  |  |  |  |  |  |  |  |  | 0.74 | 92.3 | insulin-like factor 3 peptide (INSL3) (ligand) |
